Read-outs that look alike come from different tables or passages of the source.
Key:
[1] = Gel formation on mixing the product with the same amount of water; type: physicochemical
Experimental: . Then, the mixture was mixed with stirring at room temperature for 48 hours. After the solid catalyst was separated by filtration, ethanol and acetonitrile were distilled away under reduced pressure, and 4.0 g of transparent viscous liquid was obtained.

[2] = Gelation ability in KGM medium (visual); type: physicochemical; settings: room temperature
Experimental: (§1) In order to investigate the gelation ability of the above-described polyhydric alcohol substituted silane derivatives in water, the present inventors visually evaluated the progress of gelation for the 1,3-butylene glycol substituted compound and glycerin substituted compound.
(§2) The gelation ability was evaluated by adding the polyhydric alcohol substituted silane derivative to water or KGM medium to obtain various concentrations, mixing and stirring at room temperature, allowing the solution to stand still, and visually observing the gelation.

[3] = Gelation ability in aqueous solution (visual); type: physicochemical; settings: room temperature
Experimental: as §1, §2

[4] = Solubility of polyhydric alcohol substituted silane derivatives in various solvents; type: physicochemical; settings: summary of Table 1
Experimental: Subsequently, the present inventors evaluated the solubility of the thus obtained polyhydric alcohol substituted silane derivatives in various solvents.
The evaluation of solubility was conducted by adding a polyhydric alcohol substituted silane derivative into various solvents so that the concentration would be 5 weight %, mixing and stirring at room temperature, allowing them to stand still, and visually observing the solution state. The evaluation criteria were as follows.

[5] = target: T1, papain (Carica papaya, UniProt P00784); assay: Stabilization of papain enzyme activity in solid gel on storage; type: biochemical
T1 sequence (P00784 134-345): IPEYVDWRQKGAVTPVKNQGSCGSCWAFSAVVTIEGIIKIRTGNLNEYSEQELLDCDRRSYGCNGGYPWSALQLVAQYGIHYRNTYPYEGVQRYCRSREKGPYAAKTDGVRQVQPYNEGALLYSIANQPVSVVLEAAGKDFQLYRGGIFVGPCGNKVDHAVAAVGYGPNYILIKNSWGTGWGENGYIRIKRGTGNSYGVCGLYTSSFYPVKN
Experimental: Into 1 g of water, 0.2 g of the propylene glycol substituted silane derivative, (Si—(OCH2CH2CH2OH)4), was dissolved. Into this solution, 0.2 mL of papain solution (4 μg/mL) was added and mixed, and the samples were charged on a 96-hole plate and allowed to stand for a fixed length of time. Similarly, several test samples were prepared, and they were maintained at various temperatures (0° C., 37° C., room temperature, and 50° C.). After 2 hours and after 3 days, the papain enzyme activity of each sample was measured. The enzyme activity was measured with a plate reader after the enzyme substrate, N-carbobenzoxy-phenylarginine-4-methylcoumarinamide (Z-PheArg-MCA), was directly added into the 96-hole plate and allowed to stand for 20 minutes at room temperature. In Comparative Example 5, the papain enzyme activity was measured in the same way as Example 21 except that the propylene glycol substituted silane derivative was not used.
The values of enzyme activity were standardized by setting the enzyme activity of the comparative example sample that had been stored at 0° C. for 2 hours to 100.0.

With `OCC(O)CO[Si](OCC(O)CO)(OCC(O)CO)OCC(O)CO` (stereo not drawn) [Glycerin substituted silane derivative, Si—(O—CH2—CHOH—CH2—OH)4] as the molecule, how does the “Result of mixing the product with the same amount of water” value (shortened to “Result of mixing the product”) ([1]; room temperature) read?
Its value is “homogeneous transparent gel”.

What about the “Appearance (gelation)” value ([2]; 2.5 % (wt/vol)) of the same molecule?
Its value is “Transparent solution, slight thickening after 2 hours, pasty”.

And the “Appearance (gelation)” value ([2]; 5.6 % (wt/vol))?
The value was “Transparent solution, gelation after 3 hours, some”.

And the “Appearance (gelation)” value ([2]; 11.0 % (wt/vol))?
Its value is “Transparent solution, gelation after 1 hour, some”.

What about the “Appearance (gelation)” value ([2]; 21.0 % (wt/vol)) of the same molecule?
The value was “Transparent solution, gelation (ringing gel) after 30”.

What about the “Appearance (gelation)” value ([2]; 35.0 % (wt/vol)) of the same molecule?
Its value is “Transparent solution, gelation (ringing gel) after 30”.

And the “Appearance (gelation)” value ([3]; 10.0 % (wt/vol))?
Its value is “Transparent, thickening after about 1 week, agar-like soft”.

And the “Appearance (gelation)” value ([3]; 20.0 % (wt/vol))?
Its value is “Translucent low-viscosity gel after 1 day, some”.

And the “Appearance (gelation)” value ([3]; 30.0 % (wt/vol))?
Its value is “Gelation after 1 day, some seeping-out ringing gel”.

For `CC(O)CCO[Si](OCCC(C)O)(OCCC(C)O)OCCC(C)O` (stereo not drawn) [Si—(OCH2CH2CH2OHCH3)4], which “Result of mixing the product” value [1] is on record?
Its value is “homogeneous transparent gel”.

And the “Appearance (gelation)” value ([2]; 2.9 % (wt/vol))?
Its value is “Transparent solution, slight thickening after 2 hours, pasty”.

And the “Appearance (gelation)” value ([2]; 5.3 % (wt/vol))?
Its value is “Transparent solution, gelation after 1 hour, some”.

What about the “Appearance (gelation)” value ([2]; 10.4 % (wt/vol)) of the same molecule?
Its value is “Transparent solution, gelation after 12 minutes, some”.

What about the “Appearance (gelation)” value ([2]; 19.6 % (wt/vol)) of the same molecule?
Its value is “Transparent solution, gelation (ringing gel) after 2”.

What about the “Appearance (gelation)” value ([2]; 35.4 % (wt/vol)) of the same molecule?
Its value is “Transparent solution, gelation (ringing gel) after 1 minute”.

What about the “Appearance (gelation)” value ([3]; 10.0 % (wt/vol)) of the same molecule?
The value was “Colloidal turbidity, slight thickening after about 1 week”.

And the “Appearance (gelation)” value ([3]; 20.0 % (wt/vol))?
The value was “Colloidal turbidity, thickening after 2 days, translucent”.

What about the “Appearance (gelation)” value ([3]; 30.0 % (wt/vol)) of the same molecule?
The value was “Colloidal turbidity, gelation after 2 days, seeping-out”.

What about the “Solubility in other organic solvents” value [4] of the same molecule?
The value was “excellent solubility in other organic solvents”.

With `OCCO[Si](OCCO)(OCCO)OCCO` [tetra(2-hydroxyethoxy)silane] as the molecule, how does the “Result of mixing the product” value ([1]; room temperature) read?
The value was “homogeneous transparent gel”.

For `OCCCO[Si](OCCCO)(OCCCO)OCCCO` [Si—(OCH2CH2CH2OH)4], which “Result of mixing the product” value ([1]; room temperature) is on record?
Its value is “homogeneous transparent gel”.

What about the “Solubility in other organic solvents” value [4] of the same molecule?
The value was “excellent solubility in other organic solvents”.

B1: Comparative Example 5: papain sample prepared as Example 21 except that the propylene glycol substituted silane derivative was not used (protein, UniProt P00784 134-345, looked up)
Papain: T1 sequence (P00784 134-345)
Which “Papain enzyme activity (standardized, Comparative Example 5 at 0° C. for 2 hours = 100.0)” value (shortened to “Papain enzyme activity”) ([5]; After 2 hours, 0° C.) does the source give for B1 here?
The value was 100.0.

What about the “Papain enzyme activity” value ([5]; After 2 hours, 37° C.) of the same molecule?
The value was 98.3.

And the “Papain enzyme activity” value ([5]; After 2 hours, 50° C.)?
Its value is 67.1.

And the “Papain enzyme activity” value ([5]; After 2 hours, Room temperature)?
Its value is 96.5.

What about the “Papain enzyme activity” value ([5]; After 3 days, 0° C.) of the same molecule?
The value was 98.9.

What about the “Papain enzyme activity” value ([5]; After 3 days, 37° C.) of the same molecule?
Its value is 18.6.

And the “Papain enzyme activity” value ([5]; After 3 days, 50° C.)?
Its value is 2.2.

What about the “Papain enzyme activity” value ([5]; After 3 days, Room temperature) of the same molecule?
Its value is 34.5.

Reference: patent US20090149554A1, “WATER-SOLUBLE METAL ALCOHOLATE DERIVATIVES, PRODUCTION METHODS THEREOF, AND SOLID GELATINOUS EXTERNAL PREPARATIONS CONTAINING THE SAME” (SHISEIDO CO., LTD., priority 2005, published 2009)
